Drawing on US20260015350A1, “AZAQUINAZOLINE PAN-KRAS INHIBITORS” (Mirati Therapeutics, Inc., priority 2022, published 2026), this text covers IC50 for 16 compounds.

One experiment deals with T1, KRas^G12D (Homo sapiens, UniProt P01116, G12D).
T1 construct: Biotinylated KRas (corresponding to amino acids 1-169, produced at Accelegan Inc.); biotin (biotinylated); purchased Accelegan Inc
In words: KRas binding assay (TR-FRET tracer displacement), KRas G12D.

Another experiment deals with T2, KRas^G12R (Homo sapiens, UniProt P01116, G12R).
T2 construct: Biotinylated KRas (corresponding to amino acids 1-169, produced at Accelegan Inc.); biotin (biotinylated); purchased Accelegan Inc
T2 sequence (P01116 1-169 isoform P01116-2 G12R): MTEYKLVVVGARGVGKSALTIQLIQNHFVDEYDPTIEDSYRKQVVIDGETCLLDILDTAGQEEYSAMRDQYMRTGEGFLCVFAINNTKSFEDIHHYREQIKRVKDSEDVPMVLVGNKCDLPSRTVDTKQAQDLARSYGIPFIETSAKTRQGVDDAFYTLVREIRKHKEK
The experiment is described as follows: KRas binding assay (TR-FRET tracer displacement), KRas G12R. For orientation: TR-FRET usually uses a lanthanide donor and a delayed reading to cut background.

Another experiment concerns the target T3, KRas^G12V (Homo sapiens, UniProt P01116, G12V).
T3 construct: Biotinylated KRas (corresponding to amino acids 1-169, produced at Accelegan Inc.); biotin (biotinylated); purchased Accelegan Inc
In words: KRas binding assay (TR-FRET tracer displacement), KRas G12V.

The subject of experiment [1] is KRas-mediated phosphorylation of ERK in AsPC-1 cells. The experiment is described as follows: Inhibition of KRas-mediated phosphorylation of ERK (Cisbio HTRF pERK), AsPC-1 cells. The experiment is classed as cell-based. The note with it: HTRF pERK. On the procedure:
(§1) Inhibition of KRas Phosphorylation of ERK (HTRF) by Exemplary Compounds of Formula (I) Cisbio HTRF Advanced PERK Assay Catalog #64[…] […] Add 10 mL of media to stop trypsinizing. Pipette the cells into a conical bottom 50 mL centrifuge tube and centrifuge 5 min×1000 rpm. […] Re-suspend the cell pellet in media, take a cell count, and then adjust the cell density using fresh media. […] Seed 6,000 cells into cell culture plate with 50 μL media. […] Use Tecan to complete the compound addition. Compounds start from 10 uM top, 3-fold dilution, and 10 doses. The final DMSO concentration is 0.8%. Dispensed 0.2 uM Trametinib as Min control. […] Incubate cell plate for 3 hrs in the incubator. […] Dilute 1 volume of 4× lysis buffer with 3 volumes of deionized water. […] Keep lysis buffer on the ice. […] At the end of the compound treatment, flick-off the media. […] Add 35 μL of lysis buffer per well using a Multidrop Combi. Then place on a plate agitator shaking at 300 rpm at 4° C. for 40 mins. […] Make up the HTRF antibody buffer. For each assay plate, mix 50 μL of d2-conjugate antibody with 950 μL of detection buffer. Similarly, mix 50 μL of Cryptate antibody with 950 μL of detection buffer. Then mix the two diluted antibodies together. […] Dispense 3.4 μL the antibody buffer to wells of an empty assay plate. Seal the plate and centrifuge plate 30 sec×1000 rpm. […] At the end of the 4° C. lysis, centrifuge the lysate plates 3 mins×1500 rpm. […] Use the Bravo to transfer 13.6 μL of lysate from cell culture plate to assay plate. Then incubate assay plate for 2 hrs at room temperature. 8. At the end of incubation, read plate on the Envision after centrifuging plate 30 sec×1000 rpm.

The subject of experiment [2] is KRas-mediated phosphorylation of ERK in H727 cells. In words: Inhibition of KRas-mediated phosphorylation of ERK (Cisbio HTRF pERK), H727 cells. The experiment is classed as cell-based. To be noted: HTRF pERK. On the procedure:
as §1

Setting [3] is: Homo sapiens, ASPC1, AsPC-1 cells.
Where [4] appears, read: Homo sapiens, NCI-H727, H727 cells.

SMILES strings stand for the structures.

By IC50 is commonly meant the concentration at which inhibition is half-maximal.

T1 sequence (P01116 1-169 isoform P01116-2 G12D): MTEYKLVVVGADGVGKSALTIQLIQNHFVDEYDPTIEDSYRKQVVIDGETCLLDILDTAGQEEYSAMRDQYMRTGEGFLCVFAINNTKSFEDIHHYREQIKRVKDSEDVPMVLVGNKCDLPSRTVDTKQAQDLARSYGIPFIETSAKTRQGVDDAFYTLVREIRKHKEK
T3 sequence (P01116 1-169 isoform P01116-2 G12V): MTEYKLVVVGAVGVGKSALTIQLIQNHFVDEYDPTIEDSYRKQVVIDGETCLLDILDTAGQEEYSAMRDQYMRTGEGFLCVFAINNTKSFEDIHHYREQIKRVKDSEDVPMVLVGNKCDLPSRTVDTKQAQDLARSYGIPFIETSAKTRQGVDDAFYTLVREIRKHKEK

As to `CCc1c(F)ccc2cc(O)cc(-c3ncc4c(N5C[C@H]6C[C@@H](C5)[C@@H](O)[C@@H]6O)nc(OC[C@@]56CCCN5C[C@H](F)C6)nc4c3F)c12` (single isomer, unassigned) [Example 571], the IC50 is 300 nM on KRas^G12D; 59 nM on KRas^G12R; 62 nM on KRas^G12V; over 10000 nM in experiment [1] (setting [3]); over 10000 nM in experiment [2] (setting [4]).
On to `CCc1c(F)ccc2cc(O)cc(-c3ncc4c(N5CCCC(C6CCNC6=O)C5)nc(OC[C@@]56CCCN5C[C@H](F)C6)nc4c3F)c12` (single isomer, unassigned) [Example 617], for which the IC50 was 9 nM on KRas^G12D; 4 nM on KRas^G12R; 4 nM on KRas^G12V; 1550 nM in experiment [1] (AsPC-1 cells); 763 nM in experiment [2] (H727 cells).
Take `CCc1c(F)ccc2cc(O)cc(-c3ncc4c(N5CCCC(C6CCNC6=O)C5)nc(OC[C@@]56CCCN5C[C@H](F)C6)nc4c3F)c12` (single isomer, unassigned) [Example 618]: the IC50 at KRas^G12D was 644 nM; at KRas^G12R, 195 nM; on KRas^G12V it was 168 nM; in experiment [1] (AsPC-1 cells), over 10000 nM; in experiment [2] (H727 cells) it was over 10000 nM.
For the compound `CCc1c(F)ccc2cc(O)cc(-c3ncc4c(N5CCCC(C6CCNC6=O)C5)nc(OC[C@@]56CCCN5C[C@H](F)C6)nc4c3F)c12` (single isomer, unassigned) [Example 619], the IC50 at KRas^G12D turned out to be 33 nM; on KRas^G12R it was 4 nM; on KRas^G12V, 21 nM; in experiment [1] (AsPC-1 cells), 3620 nM; in experiment [2] (H727 cells), 1810 nM.
As for `O=C1CC2CN(c3nc(OCC45CCCN4CCC5)nc4c(F)c(-c5cccc6cccc(F)c56)ncc34)CCC2C(=O)N1` (stereo not drawn) [Example 526, 6-(8-fluoro-7-(8-fluoronaphthalen-1-yl)-2-((hexahydro-1H-pyrrolizin-7a-yl)methoxy)pyrido[4,3-d]pyrimidin-4-yl)hexahydro-2,6-naphthyridine-1,3(2H,4H)-dione], the IC50 at KRas^G12D is over 100000 nM; on KRas^G12R it was 67700 nM; on KRas^G12V it was over 100000 nM; in experiment [1] (setting [3]), over 10000 nM; in experiment [2] (setting [4]) it was over 10000 nM.
With `CCc1c(F)ccc2cc(O)cc(-c3ncc4c(N5CCC[C@@](C)(O)C5)nc(N5CC(N)C5)nc4c3F)c12` [Example 527, (R)-1-(2-(3-aminoazetidin-1-yl)-7-(8-ethyl-7-fluoro-3-hydroxynaphthalen-1-yl)-8-fluoropyrido[4,3-d]pyrimidin-4-yl)-3-methylpiperidin-3-ol], the IC50 on KRas^G12D was 116 nM; at KRas^G12R, 193 nM; on KRas^G12V, 150 nM; in experiment [1] (setting [3]) it was over 10000 nM; in experiment [2] (setting [4]), over 10000 nM.
`CCc1c(F)ccc2cc(O)cc(-c3ncc4c(N5CCCC6(C5)NC(=O)NC6=O)nc(N5CC(N)C5)nc4c3F)c12` (stereo not drawn) [Example 528, 7-(2-(3-aminoazetidin-1-yl)-7-(8-ethyl-7-fluoro-3-hydroxynaphthalen-1-yl)-8-fluoropyrido[4,3-d]pyrimidin-4-yl)-1,3,7-triazaspiro[4.5]decane-2,4-dione]: the IC50 is 8 nM on KRas^G12D; 3 nM at KRas^G12R; 3 nM at KRas^G12V; over 10000 nM in experiment [1] (setting [3]); over 10000 nM in experiment [2] (setting [4]).
As to `CCc1c(F)ccc2cc(O)cc(-c3ncc4c(N5CCCn6nc(C(=O)N(C)C)cc6C5)nc(N5CC(N)C5)nc4c3F)c12` [Example 529, 5-(2-(3-aminoazetidin-1-yl)-7-(8-ethyl-7-fluoro-3-hydroxynaphthalen-1-yl)-8-fluoropyrido[4,3-d]pyrimidin-4-yl)-N,N-dimethyl-5,6,7,8-tetrahydro-4H-pyrazolo[1,5-a][1,4]diazepine-2-carboxamide], the IC50 was 14 nM at KRas^G12D; 36 nM on KRas^G12R; 21 nM at KRas^G12V; over 10000 nM in experiment [1] (setting [3]); over 10000 nM in experiment [2] (setting [4]).
For the compound `CCc1c(F)ccc2cc(O)cc(-c3ncc4c(N5CCCC6(C5)NC(=O)NC6=O)nc(N5CC(C)(N)C5)nc4c3F)c12` (stereo not drawn) [Example 531, 7-(2-(3-amino-3-methylazetidin-1-yl)-7-(8-ethyl-7-fluoro-3-hydroxynaphthalen-1-yl)-8-fluoropyrido[4,3-d]pyrimidin-4-yl)-1,3,7-triazaspiro[4.5]decane-2,4-dione], the IC50 on KRas^G12D is 5 nM; at KRas^G12R, under 2 nM; at KRas^G12V, under 2 nM; in experiment [1] (setting [3]), over 10000 nM; in experiment [2] (setting [4]), over 10000 nM.
Turning to `CCc1c(F)ccc2cc(O)cc(-c3ncc4c(NCc5cn(C(=O)N(C)C)nc5NC(=O)C5CCC5O)nc(OC[C@@]56CCCN5C[C@H](F)C6)nc4c3F)c12` (stereo partly drawn) [Example 819, 4-(((7-(8-ethyl-7-fluoro-3-hydroxynaphthalen-1-yl)-8-fluoro-2-(((2R,7aS)-2-fluorotetrahydro-1H-pyrrolizin-7a(5H)-yl)methoxy)pyrido[4,3-d]pyrimidin-4-yl)amino)methyl)-3-(2-hydroxycyclobutane-1-carboxamido)-N,N-dimethyl-1H-pyrazole-1-carboxamide], the IC50 at KRas^G12D was determined as 1130 nM; on KRas^G12R, 86 nM; at KRas^G12V it was 24 nM.
As to `O[C@@H]1C[C@H]2C[C@@H]1CN(c1nc(OC[C@@]34CCCN3C[C@H](F)C4)nc3c(F)c(-c4cccc5cc(C(F)F)ccc45)ncc13)C2` [Example 841, (1R,5R,6R)-3-(7-(6-(difluoromethyl)naphthalen-1-yl)-8-fluoro-2-(((2R,7aS)-2-fluorotetrahydro-1H-pyrrolizin-7a(5H)-yl)methoxy)pyrido[4,3-d]pyrimidin-4-yl)-3-azabicyclo[3.2.1]octan-6-ol], the IC50 at KRas^G12D amounted to 66900 nM; on KRas^G12R, 62900 nM; at KRas^G12V it was 34000 nM.
The corresponding values for `CCc1c(F)ccc2cc(O)cc(-c3ncc4c(N5CCN(C)C[C@]6(C)CCC[C@@H]56)nc(OC[C@@]56CCCN5C[C@H](F)C6)nc4c3F)c12` [Example 866, 4-(4-((5aS,8aR)-4,5a-dimethyloctahydrocyclopenta[e][1,4]diazepin-1(2H)-yl)-8-fluoro-2-(((2R,7aS)-2-fluorotetrahydro-1H-pyrrolizin-7a(5H)-yl)methoxy)pyrido[4,3-d]pyrimidin-7-yl)-5-ethyl-6-fluoronaphthalen-2-ol] are 102 nM, 7350 nM and 3530 nM.
`CCCCCCCCCCN(C)C(=O)OC[C@@H]1CC[C@@]2(COc3nc(N4CCC[C@@](C)(O)C4)c4cnc(-c5cc(O)cc6ccc(F)c(CC)c56)c(F)c4n3)CCCN12` [Example 894, ((3S,7aR)-7a-(((7-(8-ethyl-7-fluoro-3-hydroxynaphthalen-1-yl)-8-fluoro-4-((R)-3-hydroxy-3-methylpiperidin-1-yl)pyrido[4,3-d]pyrimidin-2-yl)oxy)methyl)hexahydro-1H-pyrrolizin-3-yl)methyl decyl(methyl)carbamate]: the IC50 on KRas^G12D was determined as 121 nM; on KRas^G12R, 177 nM; at KRas^G12V it was 119 nM.
As to `O[C@@H]1CCCN(c2nc(OCC34CCCN3CCC4)nc3c(F)c(-c4cccc5cccc(Cl)c45)ncc23)C1` [Example 902, (R)-1-(7-(8-chloronaphthalen-1-yl)-8-fluoro-2-((tetrahydro-1H-pyrrolizin-7a(5H)-yl)methoxy)pyrido[4,3-d]pyrimidin-4-yl) piperidin-3-ol], the IC50 at KRas^G12D was 834 nM; on KRas^G12R, 876 nM; at KRas^G12V, 902 nM.
The matching figures for `O[C@H]1CCCN(c2nc(OCC34CCCN3CCC4)nc3c(F)c(-c4cccc5cccc(Cl)c45)ncc23)C1` [Example 903, (S)-1-(7-(8-chloronaphthalen-1-yl)-8-fluoro-2-((tetrahydro-1H-pyrrolizin-7a(5H)-yl)methoxy)pyrido[4,3-d]pyrimidin-4-yl) piperidin-3-ol]: 9830 nM, 11200 nM and 15100 nM.
The corresponding values for `O=S1(=O)NCC2(CCCN(c3nc(OCC45CCCN4CCC5)nc4c(F)c(-c5cccc6cccc(CO)c56)ncc34)C2)N1` (stereo not drawn) [Example 906, 7-(8-fluoro-7-(8-(hydroxymethyl)naphthalen-1-yl)-2-((tetrahydro-1H-pyrrolizin-7a(5H)-yl)methoxy)pyrido[4,3-d]pyrimidin-4-yl)-2-thia-1,3,7-triazaspiro[4.5]decane 2,2-dioxide] are 66 nM, 646 nM and 247 nM.
